PubChem BioAssay (NCI)
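How tested: cells in 96-well plates exposed to compound for 48 hours at five concentrations. At the TGI there is no net growth.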

Columns and labels:
Test in all cases: NCI anticancer screen, dose series, 48 h
786-0 renal = tested on: 786-0 renal
A498 renal = tested on: A498 renal
A549 NSCLC = tested on: A549 NSCLC
ACHN renal = tested on: ACHN renal
BT-549 breast = tested on: BT-549 breast
CAKI-1 renal = tested on: CAKI-1 renal
CCRF-CEM leukemia = tested on: CCRF-CEM leukemia
COLO 205 colon = tested on: COLO 205 colon
DU-145 prostate = tested on: DU-145 prostate
EKVX NSCLC = tested on: EKVX NSCLC
HCC-2998 colon = tested on: HCC-2998 colon
HCT-116 colon = tested on: HCT-116 colon
HCT-15 colon = tested on: HCT-15 colon
HL-60(TB) leukemia = tested on: HL-60(TB) leukemia
HOP-62 NSCLC = tested on: HOP-62 NSCLC
HOP-92 NSCLC = tested on: HOP-92 NSCLC
HS 578T breast = tested on: HS 578T breast
HT29 colon = tested on: HT29 colon
IGROV1 ovarian = tested on: IGROV1 ovarian
K-562 leukemia = tested on: K-562 leukemia
KM12 colon = tested on: KM12 colon
LOX IMVI melanoma = tested on: LOX IMVI melanoma
M14 melanoma = tested on: M14 melanoma
MALME-3M melanoma = tested on: MALME-3M melanoma
MCF7 breast = tested on: MCF7 breast
MDA-MB-231 breast = tested on: MDA-MB-231 breast
MDA-MB-435 = tested on: MDA-MB-435
MDA-N = tested on: MDA-N
MOLT-4 leukemia = tested on: MOLT-4 leukemia
NCI-H226 lung = tested on: NCI-H226 lung
NCI-H23 lung = tested on: NCI-H23 lung
NCI-H460 lung = tested on: NCI-H460 lung
NCI-H522 lung = tested on: NCI-H522 lung
NCI/ADR-RES ovarian = tested on: NCI/ADR-RES ovarian
OVCAR-3 ovarian = tested on: OVCAR-3 ovarian
OVCAR-4 ovarian = tested on: OVCAR-4 ovarian
OVCAR-5 ovarian = tested on: OVCAR-5 ovarian
OVCAR-8 ovarian = tested on: OVCAR-8 ovarian
PC-3 prostate = tested on: PC-3 prostate
RPMI-8226 leukemia = tested on: RPMI-8226 leukemia
RXF 393 renal = tested on: RXF 393 renal
SF-268 CNS = tested on: SF-268 CNS
SF-295 CNS = tested on: SF-295 CNS
SF-539 CNS = tested on: SF-539 CNS
SK-MEL-2 melanoma = tested on: SK-MEL-2 melanoma
SK-MEL-5 melanoma = tested on: SK-MEL-5 melanoma
SK-OV-3 ovarian = tested on: SK-OV-3 ovarian
SN12C renal = tested on: SN12C renal
SNB-19 CNS = tested on: SNB-19 CNS
SNB-75 CNS = tested on: SNB-75 CNS
SW-620 colon = tested on: SW-620 colon
T-47D breast = tested on: T-47D breast
TK-10 renal = tested on: TK-10 renal
U251 CNS = tested on: U251 CNS
UACC-257 melanoma = tested on: UACC-257 melanoma
UACC-62 melanoma = tested on: UACC-62 melanoma
UO-31 renal = tested on: UO-31 renal
SK-MEL-28 melanoma = tested on: SK-MEL-28 melanoma
SR leukemia = tested on: SR leukemia

Molecule `O=C1/C(=C/c2ccc([N+](=O)[O-])cc2)Sc2scc(-c3cccc([N+](=O)[O-])c3)[n+]21` has a TGI (786-0 renal) of 4.96 µM, a TGI (A498 renal) of 7.98 µM and a TGI (A549 NSCLC) of 56.7 µM. For the same molecule, the TGI (ACHN renal) was 14 µM, the TGI (BT-549 breast) was 18.7 µM and the TGI (CAKI-1 renal) was 7.03 µM. The TGI (CCRF-CEM leukemia) was 1.3 µM, the TGI (COLO 205 colon) was 3.69 µM and the TGI (DU-145 prostate) was 23.7 µM. For the same molecule, the TGI (EKVX NSCLC) was 25 µM, the TGI (HCC-2998 colon) was 19.1 µM and the TGI (HCT-116 colon) was 18.1 µM. The TGI (HCT-15 colon) was 5.75 µM, the TGI (HL-60(TB) leukemia) was 1.07 µM and the TGI (HOP-62 NSCLC) was 33.9 µM. It also gave a TGI (HOP-92 NSCLC) of 13.8 µM, a TGI (HS 578T breast) of 48.1 µM and a TGI (HT29 colon) of 9.35 µM. The TGI (IGROV1 ovarian) was 10.7 µM, the TGI (K-562 leukemia) was 8.16 µM and the TGI (KM12 colon) was 24.6 µM. The TGI (LOX IMVI melanoma) was 8.03 µM, the TGI (M14 melanoma) was 17.5 µM and the TGI (MALME-3M melanoma) was 3.22 µM. The TGI (MCF7 breast) was > 38.3 µM, the TGI (MDA-MB-231 breast) was 16.5 µM and the TGI (MDA-MB-435) was 18.4 µM. For the same molecule, the TGI (MDA-N) was 15.7 µM, the TGI (MOLT-4 leukemia) was > 20.1 µM and the TGI (NCI-H226 lung) was 29.9 µM. It also gave a TGI (NCI-H23 lung) of 42 µM, a TGI (NCI-H460 lung) of 26.1 µM and a TGI (NCI-H522 lung) of 2.69 µM. For the same molecule, the TGI (NCI/ADR-RES ovarian) was 26.3 µM, the TGI (OVCAR-3 ovarian) was 15.2 µM and the TGI (OVCAR-4 ovarian) was 31.4 µM. For the same molecule, the TGI (OVCAR-5 ovarian) was 24.8 µM, the TGI (OVCAR-8 ovarian) was > 54.9 µM and the TGI (PC-3 prostate) was 26.8 µM. It also gave a TGI (RPMI-8226 leukemia) of 11.4 µM, a TGI (RXF 393 renal) of 7.94 µM and a TGI (SF-268 CNS) of 7.75 µM. The TGI (SF-295 CNS) was 29.3 µM, the TGI (SF-539 CNS) was 6.44 µM and the TGI (SK-MEL-2 melanoma) was 30.8 µM. For the same molecule, the TGI (SK-MEL-5 melanoma) was 18.6 µM, the TGI (SK-OV-3 ovarian) was 30.6 µM and the TGI (SN12C renal) was 17.3 µM. For the same molecule, the TGI (SNB-19 CNS) was 31.5 µM, the TGI (SNB-75 CNS) was 25.6 µM and the TGI (SW-620 colon) was 3.35 µM. It also gave a TGI (T-47D breast) of 24.3 µM, a TGI (TK-10 renal) of 17.8 µM and a TGI (U251 CNS) of 25.6 µM. For the same molecule, the TGI (UACC-257 melanoma) was 18.4 µM, the TGI (UACC-62 melanoma) was 29.9 µM and the TGI (UO-31 renal) was 22 µM.

With `C#CCn1c2c(c3ccccc3c1=O)C(=O)c1ccccc1-2` the TGI (786-0 renal) was 32 µM, the TGI (A498 renal) was 82.9 µM and the TGI (A549 NSCLC) was 57.3 µM. The TGI (BT-549 breast) was > 100 µM, the TGI (CAKI-1 renal) was 24.3 µM and the TGI (CCRF-CEM leukemia) was > 100 µM. For the same molecule, the TGI (COLO 205 colon) was > 100 µM, the TGI (DU-145 prostate) was 44.4 µM and the TGI (EKVX NSCLC) was 58.8 µM. The TGI (HCT-116 colon) was > 100 µM, the TGI (HCT-15 colon) was > 100 µM and the TGI (HL-60(TB) leukemia) was 10.2 µM. For the same molecule, the TGI (HOP-62 NSCLC) was 24.1 µM, the TGI (HOP-92 NSCLC) was > 100 µM and the TGI (HS 578T breast) was 34.8 µM. For the same molecule, the TGI (HT29 colon) was 65.9 µM, the TGI (IGROV1 ovarian) was 80.7 µM and the TGI (K-562 leukemia) was > 100 µM. For the same molecule, the TGI (KM12 colon) was > 100 µM, the TGI (LOX IMVI melanoma) was > 100 µM and the TGI (M14 melanoma) was > 100 µM. For the same molecule, the TGI (MALME-3M melanoma) was > 100 µM, the TGI (MCF7 breast) was 27.7 µM and the TGI (MDA-MB-231 breast) was 39.1 µM. For the same molecule, the TGI (MDA-MB-435) was > 100 µM, the TGI (MDA-N) was > 100 µM and the TGI (MOLT-4 leukemia) was > 100 µM. For the same molecule, the TGI (NCI-H226 lung) was 79.3 µM, the TGI (NCI-H23 lung) was 40.4 µM and the TGI (NCI-H522 lung) was 42.2 µM. It also gave a TGI (NCI/ADR-RES ovarian) of 88.7 µM, a TGI (OVCAR-3 ovarian) of 29.6 µM and a TGI (OVCAR-4 ovarian) of 33.1 µM. The TGI (OVCAR-5 ovarian) was > 100 µM, the TGI (OVCAR-8 ovarian) was 82.3 µM and the TGI (PC-3 prostate) was > 100 µM. The TGI (RPMI-8226 leukemia) was > 100 µM, the TGI (SF-268 CNS) was 34.1 µM and the TGI (SF-295 CNS) was 94.3 µM. The TGI (SF-539 CNS) was 24.2 µM, the TGI (SK-MEL-2 melanoma) was > 100 µM and the TGI (SK-MEL-28 melanoma) was > 100 µM. The TGI (SK-MEL-5 melanoma) was 22.1 µM, the TGI (SK-OV-3 ovarian) was 73.1 µM and the TGI (SN12C renal) was 81.6 µM. For the same molecule, the TGI (SNB-75 CNS) was 27.4 µM, the TGI (SR leukemia) was > 100 µM and the TGI (SW-620 colon) was > 100 µM. For the same molecule, the TGI (T-47D breast) was 69.4 µM, the TGI (TK-10 renal) was 61.6 µM and the TGI (U251 CNS) was 42.5 µM. The TGI (UACC-257 melanoma) was > 100 µM, the TGI (UACC-62 melanoma) was 57.1 µM and the TGI (UO-31 renal) was 13.9 µM.
